Results on 2 compounds are retold here after patent US6492174B1, “Methods of initiating embryogenic cultures in plants” (Institute of Paper Science & Technology, priority 2000, dated 2002).

Where two headings read alike, the source gives them in different places.

The test system of assay [1] is Loblolly pine megagametophytes. How it is done: As in Example 9, the explants in this experiment were megagametophytes, containing Stage 2-4 somatic embryos, excised from the open pollinated summer cones of four different genotypes of Loblolly pine. Megagametophytes were isolated as in Example 4 and put on initiation media #889 (Table 47). The experiment consisted of three replications per treatment, per cone collection. Replications consisted of ten explants in adjacent wells on a single well plate. Plates were wrapped in […] and incubated in the dark at 23-24° C.
Explants were cultured on solid media under atmospheres containing three levels of oxygen: normal air (21% oxygen), 30% oxygen and 50% oxygen. All oxygen treatments were applied at either normal atmospheric pressure or under an elevated pressure of 1.5 atmospheres.
After eight weeks, extrusion and initiation were scored, as described in Example 3.

In assay [2] the test system is loblolly pine. To be noted: silver nitrate at about 29-59 μM; cited from earlier work.
[3] abbreviates: genotype 5-1036, 30% Oxygen + Pressure.
The mark [4] stands for this setting: genotype 5-1036, 50% Oxygen + Pressure.
Where [5] appears, read: genotype 11-1057, 30% Oxygen + Pressure.
Setting [6] is: genotype 11-1057, 50% Oxygen + Pressure.
The mark [7] stands for this setting: genotype 18-120, 30% Oxygen + Pressure.
The mark [8] stands for this setting: genotype 18-120, 50% Oxygen + Pressure.
[9] abbreviates: genotype 18-1212, 30% Oxygen + Pressure.
Setting [10] is: genotype 18-1212, 50% Oxygen + Pressure.

In the case of `O=O` [Oxygen], the “% Megagametophytes Extruding” value in assay [1] (Total, 30% Oxygen) was 45.3%; in assay [1] (Total, 30% Oxygen + Pressure), 53.2%; in assay [1] (Total, 50% Oxygen), 49.8%; in assay [1] (Total, 50% Oxygen + Pressure) it was 56.9%; in assay [1] (genotype 5-1036, 30% Oxygen), 57.5 (3.8) %; in assay [1] (setting [3]) it was 73.3 (8.8) %. Besides, the “% Megagametophytes Extruding” value in assay [1] (genotype 5-1036, 50% Oxygen) is reported as 50.0 (10.0) %; in assay [1] (setting [4]), 83.3 (3.3) %; in assay [1] (genotype 11-1057, 30% Oxygen), 30.0 (15.3) %; in assay [1] (setting [5]), 34.4 (16.1) %; in assay [1] (genotype 11-1057, 50% Oxygen), 53.3 (3.3) %; in assay [1] (setting [6]), 43.3 (3.3) %. Besides, the “% Megagametophytes Extruding” value in assay [1] (genotype 18-120, 30% Oxygen) was 33.3 (19.2) %; in assay [1] (setting [7]) it was 16.7 (8.8) %; in assay [1] (genotype 18-120, 50% Oxygen), 40.0 (10.0) %; in assay [1] (setting [8]), 30.8 (3.6) %; in assay [1] (genotype 18-1212, 30% Oxygen) it was 60.3 (8.0) %; in assay [1] (setting [9]) it was 88.4 (6.5) %. Further, the “% Megagametophytes Extruding” value in assay [1] (genotype 18-1212, 50% Oxygen) was 56.0 (3.6) %; in assay [1] (setting [10]), 70.0 (15.3) %. In addition, the “% Megagametophytes Initiating” value is reported as 5.9% in assay [1] (Total, 30% Oxygen); 7.6% in assay [1] (Total, 30% Oxygen + Pressure); 11.1% in assay [1] (Total, 50% Oxygen); 8.6% in assay [1] (Total, 50% Oxygen + Pressure); 3.3 (3.3) % in assay [1] (genotype 5-1036, 30% Oxygen); 13.3 (3.3) % in assay [1] (setting [3]). Further, the “% Megagametophytes Initiating” value is on record as 20.0 (5.8) % in assay [1] (genotype 5-1036, 50% Oxygen); 13.3 (3.3) % in assay [1] (setting [4]); 10.0 (0.0) % in assay [1] (genotype 11-1057, 30% Oxygen); 6.7 (67) % in assay [1] (setting [5]); 13.0 (3.3) % in assay [1] (genotype 11-1057, 50% Oxygen); 10.0 (5.8) % in assay [1] (setting [6]). Moreover, the “% Megagametophytes Initiating” value in assay [1] (genotype 18-120, 30% Oxygen) is reported as 0.0 (0.0) %; in assay [1] (setting [7]) it was 6.7 (6.7) %; in assay [1] (genotype 18-120, 50% Oxygen), 0.0 (0.0) %; in assay [1] (setting [8]), 4.2 (4.2) %; in assay [1] (genotype 18-1212, 30% Oxygen), 10.4 (5.8) %; in assay [1] (setting [9]) it was 3.7 (3.7) %. The “% Megagametophytes Initiating” value in assay [1] (genotype 18-1212, 50% Oxygen) is 11.2 (0.7) %; in assay [1] (setting [10]), 10.0 (5.8) %.

Take `O=[N+]([O-])[O-].[Ag+]` [silver nitrate]: the embryogenic culture initiation entry in assay [2] is reported as “improved embryogenic culture initiation”.
